{
  "source": "paper PMC2362731",
  "about": "“Phase I study of Carzelesin (U-80,244) given (4-weekly) by intravenous bolus schedule” (British Journal of Cancer, 1999)",
  "key": {"[1]": {"system": "tumour cells cultured in vitro", "design": "method as in Li et al, 1992", "details": "compared with adozelesin; ref Li et al, 1992; cited from earlier work"}, "[2]": {"assay": "Plasma pharmacokinetics of Carzelesin and metabolites by HPLC, first course", "type": "in vivo, human", "protocol": "Carzelesin is a cyclopropylpyrroloindole analogue which acts as a DNA-sequence-specific alkylating agent. In this phase I study, Carzelesin was given as a 4-weekly 10 min IV infusion to 51 patients with advanced solid tumours. Patients received a median of two courses (range 1–5) at one of nine dose levels: 24, 48, 96, 130, 150, 170, 210, 250 and 300 μg m^−2. According to NCI-CTC criteria, non-haematological toxicities (grade 1/2) included fever, nausea and vomiting, mucositis and anorexia, none of which was clearly dose related. The dose-limiting toxicity was haematological and consisted mainly of neutropenia and to a lesser extent thrombocytopenia. From the dose level 150 μg m^−2, the haematological toxicity (particularly thrombocytopenia) was delayed in onset, prolonged and cumulative in some patients. In several courses, double WBC nadirs occurred. The maximum tolerated dose for a single course was 300 μg m^−2. From the dose level 170 μg m^−2, the intended dose intensity could not be delivered to most patients receiving > 2 courses owing to cumulative haematological toxicity. The dose level with the best dose intensity for multiple courses was 150 μg m^−2. The pharmacokinetics of Carzelesin and its metabolites (U-76,073; U-76,074) have been established in 31 patients during the first course of treatment using a HPLC method. […] The concentration of U-76,074 (active metabolite) extended above the lower limit of quantitation (1 ng ml^−1) for short periods of time and only at the higher dose levels. There was no relationship between neutropenia and the AUC of the prodrug Carzelesin, but the presence of detectable plasma levels of the active metabolite U-76,074 was usually associated with a substantial decrease in ANC values. © 1999 Cancer Research Campaign\nCarzelesin (U-80,244, Figure 1A) is a cyclopropylpyrroloindole (CPI) prodrug analogue of CC-1065. […] CPI drugs are a class of compounds with unique DNA interactive properties. These agents fit into the minor groove region of DNA, and the CPI function in the molecule mediates a covalent binding to the N3 position of adenine in A-T rich regions, thus forming DNA adducts in a sequence selective fashion (Hurley et al, 1984; Reynolds et al, 1985). Three new CPIs have now been developed. […] Bizelesin differs from the classical CPI drugs in that it contains two chloromethyl functions, which are both converted (via intramolecular rearrangements) to the CPI alkyl- ating species that interact with DNA. Consequently, this agent is capable of forming DNA interstrand cross-links (Lee et al, 1991). […] Therefore, efforts were directed to modu- late the alkylation rate by the preparation of CPI prodrugs that would require chemical or enzymatic conversion. The activation of Carzelesin is a two-step reaction with hydrolysis of the phenyl- urethane substituent to form the intermediate compound U-76,073, followed by ring closure to form the active product U-76,074 (Figure 1B). […] This higher efficacy may be related to the pharmacologic features of the compound. […] Phase I study of Carzelesin (U-80,244) given (4-weekly) by intravenous bolus schedule A Awada1, CJA Punt2, MJ Piccart1, O Van Tellingen3, L Van Manen2, J Kerger1, Y Groot4, J Wanders4, J Verweij5 and DJTh Wagener2 1Institut Jules Bordet, Bd de Waterloo 125, 1000 Brussels, Belgium; 2University Hospital, Geert Grooteplein 8, Box 9101, 6500 HB Nijmegen, The Netherlands; 3The Netherlands Cancer Institute (Antoni van Leeuwenhoek Huis), Plesmanlaan 121, 1066 CX Amsterdam, The Netherlands; 4European Organization for Research and Treatment of Cancer - New Drug Development Office, PO Box 7057, Amsterdam, The Netherlands; 5Rotterdam Cancer Institute, Groene Hilledijk 301, 3075 EA Rotterdam, The Netherlands; on behalf of the EORTC Early Clinical Studies Group and EORTC NDDO Summary Carzelesin is a cyclopropylpyrroloindole analogue which acts as a DNA-sequence-specific alkylating agent. […]"}},
  "data": [
    {"smiles": "CCN(CC)c1ccc2cc(C(=O)Nc3ccc4[nH]c(C(=O)N5C[C@@H](CCl)c6c5cc(OC(=O)Nc5ccccc5)c5[nH]cc(C)c65)cc4c3)oc2c1", "note": "[Carzelesin]", "values": [
      {"measurement": "potency against tumour cells cultured in vitro", "setting": "[1]", "result": "less potent than adozelesin"},
      {"measurement": "time after drug administration until plasma level dropped below 1 ng ml-1", "setting": "[2]; dose level 24", "result": "≤ 1", "unit": "h"},
      {"measurement": "peak plasma concentration", "setting": "[2]; dose level 24, also reported in Van Tellingen et al, 1998", "result": "about 10 ng ml-1"},
      {"measurement": "mean peak plasma level", "setting": "[2]; highest dose level 300", "result": 63, "unit": "ng/mL"},
      {"measurement": "pharmacokinetic behaviour (dose vs plasma AUC)", "setting": "[2]; in vivo", "result": "linear pharmacokinetics"}
    ]}
  ]
}
